Eleven molecules from US10441576B2, “Substituted 1,2-dihydro-3H pyrrolo[1,2-c]imidazol-3 one antibacterials” (priority 2015, dated 2019) can be followed below.

Converted amounts (≈) assume the structure as drawn. Bounds are passed on as bounds.

Common to all, as to format: cell-based
Assay [1] concerns E. coli ATCC25922. The assay is described as follows: Bacterial growth minimal inhibitory concentration (microdilution, cation-adjusted Mueller-Hinton Broth). To be noted: Escherichia coli, quinolone-sensitive strain. How it is done:
(§1) Minimal Inhibitory Concentrations (MICs; mg/L) were determined in cation-adjusted Mueller-Hinton Broth by a microdilution method following the description given in “Methods for Dilution Antimicrobial Susceptibility Tests for Bacteria that Grow Aerobically”, Approved standard, 7th ed., Clinical and Laboratory Standards Institute (CLSI) Document M7-A7, Wayne, Pa., USA (2006).
(§2) All Reference Example compounds were tested against several Gram-negative bacteria. […] The corresponding antibacterial test results are given in Table 1 hereafter (MICs in mg/L).
In general terms: In broth dilution the organism is exposed to a series of concentrations in liquid medium.

In assay [2] the test system is P. aeruginosa ATCC27853. Described as above. As to conditions: Pseudomonas aeruginosa, quinolone-sensitive strain. The procedure: as §1, §2
Assay [3] relates to K. pneumoniae A-651. The description is as above. To be noted: Klebsiella pneumoniae, A651; multiply resistant strain (in particular quinolone-resistant). The procedure:
as §1, §2

Assay [4] relates to wild-type E. coli A-1261. The description is as above. To be noted: Escherichia coli, quinolone-sensitive strain. The procedure:
as §1, §2

Assay [5] has as its system wild-type E. coli A-1261. The assay is described as follows: MIC against E. coli A-1261 in the absence or presence of alkaline phosphatase or esterase. How it is done: as §1
All Example compounds were tested against wild-type E. coli A-1261 in the absence of alkaline phosphatase or esterase, in the presence of an alkaline phosphatase and in the presence of an esterase. The corresponding antibacterial test results are given in Table 2 hereafter (MICs in mg/L).

The mark [6] stands for this setting: Escherichia coli, read-out: MIC for E. coli A-1261 In the absence of alkaline phosphatase or esterase.
Where [7] appears, read: Escherichia coli, read-out: MIC for E. coli A-1261 In the presence of an alkaline phosphatase (2 i.U./mL).
Setting [8] is: Escherichia coli, read-out: MIC for E. coli A-1261 In the presence of an esterase (10 i.U./mL).
[9] abbreviates: Escherichia coli; alkaline phosphatase 2 i.U./mL; read-out: MIC for E. coli A-1261 In the presence of an alkaline phosphatase (2 i.U./mL).
Where [10] appears, read: Escherichia coli; esterase 10 i.U./mL; read-out: MIC for E. coli A-1261 In the presence of an esterase (10 i.U./mL).
The mark [11] stands for this setting: Escherichia coli; read-out: MIC for E. coli A-1261 In the absence of alkaline phosphatase or esterase.

As for `C[C@@](CCN1Cc2cc(C#CC#CC3(CO)CC3)cn2C1=O)(C(=O)NO)S(C)(=O)=O` [RE1, (R)—N-hydroxy-4-(6-((1-(hydroxymethyl)cyclopropyl)buta-1,3-diyn-1-yl)-3-oxo-1H-pyrrolo[1,2-c]imidazol-2(3H)-yl)-2-methyl-2-(methylsulfonyl)butanamide], the MIC is 0.5 µg/mL (≈ 1.15 µM) in assay [1], 1 µg/mL (≈ 2.31 µM) in assay [2], 1 µg/mL (≈ 2.31 µM) in assay [3] and 0.25 µg/mL (≈ 0.577 µM) in assay [4].

Turning to `C[C@@](CCN1Cc2cc(C#CC#C[C@H]3C[C@@H]3COC(=O)CCc3ccccc3OP(=O)(O)O)cn2C1=O)(C(=O)NO)S(C)(=O)=O` [Example 5, ((1S,2S)-2-((2-((R)-4-(hydroxyamino)-3-methyl-3-(methylsulfonyl)-4-oxobutyl)-3-oxo-2,3-dihydro-1H-pyrrolo[1,2-c]imidazol-6-yl)buta-1,3-diyn-1-yl)cyclopropyl)methyl 3-(2-(phosphonooxy)phenyl)propanoate], the MIC in assay [5] (setting [6]) stood at 4 µg/mL; in assay [5] (setting [7]), 0.25 µg/mL; in assay [5] (setting [8]), 0.25 µg/mL.

For `C[C@@](CCN1Cc2cc(C#CC#CC3(COC(=O)CCc4ccccc4OP(=O)(O)O)CC3)cn2C1=O)(C(=O)NO)S(C)(=O)=O` [Example 2, (R)-(1-((2-(4-(hydroxyamino)-3-methyl-3-(methylsulfonyl)-4-oxobutyl)-3-oxo-2,3-dihydro-1H-pyrrolo[1,2-c]imidazol-6-yl)buta-1,3-diyn-1-yl)cyclopropyl)methyl 3-(2-(phosphonooxy)phenyl)propanoate], the results for the MIC in assay [5] (setting [6]), in assay [5] (setting [7]) and in assay [5] (setting [8]) were 8 µg/mL, 1 µg/mL and 1 µg/mL, respectively.

On to `C[C@@](CCN1Cc2cc(C#CC#CC3(CO)CC3)cn2C1=O)(C(=O)NOP(=O)(O)O)S(C)(=O)=O.N` [Example 7, mono-ammonium (R)-((4-(6-((1-(hydroxymethyl)cyclopropyl)buta-1,3-diyn-1-yl)-3-oxo-1H-pyrrolo[1,2-c]imidazol-2(3H)-yl)-2-methyl-2-(methylsulfonyl)butanamido)oxy)phosphonate], for which the MIC in assay [5] (setting [9]) worked out at 1 µg/mL; in assay [5] (setting [10]), 4 µg/mL; in assay [5] (setting [11]), 4 µg/mL.

Consider `C[C@@](CCN1Cc2cc(C#CC#CC3(COC(=O)CN4CCOCC4)CC3)cn2C1=O)(C(=O)NO)S(C)(=O)=O` [Example 1, (R)-(1-((2-(4-(hydroxyamino)-3-methyl-3-(methylsulfonyl)-4-oxobutyl)-3-oxo-2,3-dihydro-1H-pyrrolo[1,2-c]imidazol-6-yl)buta-1,3-diyn-1-yl)cyclopropyl)methyl 2-morpholinoacetate], for which the MIC in assay [5] (setting [9]) came out at 1 µg/mL; in assay [5] (setting [10]), 0.25 µg/mL; in assay [5] (setting [11]), 2 µg/mL.

Turning to `C[C@@](CCN1Cc2cc(C#CC#C[C@H]3C[C@@H]3COP(=O)(O)O)cn2C1=O)(C(=O)NO)S(C)(=O)=O` [Example 4, ((1S,2S)-2-((2-((R)-4-(hydroxyamino)-3-methyl-3-(methylsulfonyl)-4-oxobutyl)-3-oxo-2,3-dihydro-1H-pyrrolo[1,2-c]imidazol-6-yl)buta-1,3-diyn-1-yl)cyclopropyl)methyl dihydrogen phosphate], the figures for the MIC in assay [5] (setting [9]), in assay [5] (setting [10]) and in assay [5] (setting [11]) were 0.25 µg/mL, greater than 8 µg/mL and greater than 8 µg/mL, respectively.

Turning to `C[C@@](CCN1Cc2cc(C#CC#C[C@H]3C[C@]3(F)COP(=O)(O)O)cn2C1=O)(C(=O)NO)S(C)(=O)=O` [Example 6, ((1R,2R)-1-fluoro-2-((2-((R)-4-(hydroxyamino)-3-methyl-3-(methylsulfonyl)-4-oxobutyl)-3-oxo-2,3-dihydro-1H-pyrrolo[1,2-c]imidazol-6-yl)buta-1,3-diyn-1-yl)cyclopropyl)methyl dihydrogen phosphate], the MIC in assay [5] (setting [9]) was 0.5 µg/mL; in assay [5] (setting [10]), greater than 8 µg/mL; in assay [5] (setting [11]) it was greater than 8 µg/mL.

`C[C@@](CCN1Cc2cc(C#CC#C[C@H]3C[C@]3(F)CO)cn2C1=O)(C(=O)NO)S(C)(=O)=O` [RE3, (R)-4-(6-(((1R,2R)-2-fluoro-2-(hydroxymethyl)cyclopropyl)buta-1,3-diyn-1-yl)-3-oxo-1H-pyrrolo[1,2-c]imidazol-2(3H)-yl)-N-hydroxy-2-methyl-2-(methylsulfonyl)butanamide]: the MIC came to 0.25 µg/mL (≈ 0.554 µM) in assay [1], 0.5 µg/mL (≈ 1.11 µM) in assay [2], 0.5 µg/mL (≈ 1.11 µM) in assay [3] and 0.25 µg/mL (≈ 0.554 µM) in assay [4].

As for `C[C@@](CCN1Cc2cc(C#CC#CC3(CO)CC3)cn2C1=O)(C(=O)NOC(=O)CCc1ccccc1OP(=O)(O)O)S(C)(=O)=O` [Example 3, (R)-2-(3-((4-(6-((1-(hydroxymethyl)cyclopropyl)buta-1,3-diyn-1-yl)-3-oxo-1H-pyrrolo[1,2-c]imidazol-2(3H)-yl)-2-methyl-2-(methylsulfonyl)butanamido)oxy)-3-oxopropyl)phenyl dihydrogen phosphate], the MIC in assay [5] (setting [6]) is 8 µg/mL; in assay [5] (setting [7]), 0.5 µg/mL; in assay [5] (setting [8]) it was 8 µg/mL.

For the molecule `C[C@@](CCN1Cc2cc(C#CC#C[C@H]3C[C@@H]3CO)cn2C1=O)(C(=O)NO)S(C)(=O)=O` [RE2, (R)—N-hydroxy-4-(6-(((1S,2S)-2-(hydroxymethyl)cyclopropyl)buta-1,3-diyn-1-yl)-3-oxo-1H-pyrrolo[1,2-c]imidazol-2(3H)-yl)-2-methyl-2-(methylsulfonyl)butanamide], the MIC in assay [1] was determined as 0.25 µg/mL (≈ 0.577 µM); in assay [2] it was 0.25 µg/mL (≈ 0.577 µM); in assay [3] it was 0.25 µg/mL (≈ 0.577 µM); in assay [4], 0.125 µg/mL (≈ 0.288 µM).

As for “(R)-(1-((2-(4-(hydroxyamino)-3-methyl-3-(methylsulfonyl)-4-oxobutyl)-3-oxo-2,3-dihydro-1H-pyrrolo[1,2-c]imidazol-6-yl)buta-1,3-diyn-1-yl)cyclopropyl)methyl hydrogen sulfate [Example 8]”, the “MIC for E. coli A-1261 In the absence of alkaline phosphatase or esterase” value in assay [5] (absence of alkaline phosphatase or esterase) came to 2 µg/mL. For the same molecule, the “MIC for E. coli A-1261 In the presence of an alkaline phosphatase (2 i.U./mL)” value in assay [5] (alkaline phosphatase 2 i.U./mL) turned out to be 2 µg/mL. Besides, the “MIC for E. coli A-1261 In the presence of an esterase (10 i.U./mL)” value in assay [5] (esterase 10 i.U./mL) came out at 2 µg/mL.
